The values that follow come from the NIST ThermoML archive (doi:10.1016/j.fluid.2014.09.007).

Numbers after ± are expanded uncertainties.

The conditions of data set [1]: Crystal.
Data set [2] can be described thus: Solid-liquid equilibrium temperature. The note with it: Crystal, visual observation.
Data set [3] can be described thus: Molar enthalpy of transition or fusion. Particulars: Crystal; DSC.

`CCCCCCCCCCCC(=O)OCC` [ethyl dodecanoate]: the Normal melting temperature in data set [1] (DTA) was -0.9 ± 0.5 °C; in data set [1] (visual observation), -0.8 ± 0.5 °C. In addition, the Solid-liquid equilibrium temperature was found to be 272.3 ± 0.4 K in data set [2] (100 kPa); 276.4 ± 0.5 K in data set [2] (20000 kPa); 280.3 ± 0.5 K in data set [2] (40000 kPa); 284 ± 0.5 K in data set [2] (60000 kPa); 287.4 ± 0.5 K in data set [2] (80000 kPa). In addition, the “Molar enthalpy of transition or fusion” value in data set [3] was found to be 9.18 ± 0.311 kcal/mol.

In the case of `CCCCCCCCCCCCCCCC(=O)OCC` [ethyl hexadecanoate], the Normal melting temperature in data set [1] (DTA) turned out to be 24.2 ± 0.5 °C; in data set [1] (visual observation) it was 24.5 ± 0.5 °C. The Solid-liquid equilibrium temperature in data set [2] (100 kPa) is 297.6 ± 0.4 K; in data set [2] (20000 kPa) it was 302 ± 0.5 K; in data set [2] (40000 kPa), 306.4 ± 0.5 K; in data set [2] (60000 kPa), 310.3 ± 0.5 K; in data set [2] (80000 kPa), 314.3 ± 0.5 K. Further, the “Molar enthalpy of transition or fusion” value in data set [3] amounted to 13.3 ± 0.359 kcal/mol.

Consider `CCCCCCCCCCCCCC(=O)OCC` [ethyl tetradecanoate], for which the Normal melting temperature worked out at 13.2 ± 0.5 °C in data set [1] (DTA) and 12.7 ± 0.5 °C in data set [1] (visual observation). In addition, the Solid-liquid equilibrium temperature was found to be 285.8 ± 0.4 K in data set [2] (100 kPa); 289.9 ± 0.5 K in data set [2] (20000 kPa); 294.1 ± 0.5 K in data set [2] (40000 kPa); 298 ± 0.5 K in data set [2] (60000 kPa); 301.9 ± 0.5 K in data set [2] (80000 kPa). Further, the “Molar enthalpy of transition or fusion” value in data set [3] was 11.3 ± 0.335 kcal/mol.
